Assay results published in EP3901142A1, “PYRAZOLYLBENZENE-1,3-DIOLS FOR DISEASES ASSOCIATED WITH G PROTEIN-COUPLED RECEPTOR 18 AND IN COMBINATION WITH TRANSIENT RECEPTOR POTENTIAL VANILLOID 1” (Consejo Superior de Investigaciones Científicas (CSIC), priority 2020, dated 2021).

Biological target: TRPV1 (Homo sapiens, UniProt Q8NER1)
Assay: Calcium imaging (Fura-2 AM) in TRPV1-expressing cells
Format: cell-based
Conditions: 5 µM; TPRV1-expressing cells
Protocol: Cell Culture. A plasmid containing GPR18 (NM_005292) was obtained from Origene (Rockville, MD) and engineered with an N-terminal GFP-tag. The resulting plasmid was used to transfect CHO-K1 cells using Lipofectamine 2000 (Invitrogen, Carlsbad CA). Clonal cells were selected in medium containing G418 (Geneticin, 800 µg/ml; Enzo Life Sciences, Farmingdale, NY). Two weeks after transfection, clones were isolated and expression was verified by fluorescence microscopy of GFP-tagged receptors. The resulting stable cell line was cultured in DMEM with 10% fetal bovine serum at 37°C, 5% CO2 and passaged every 2-3 days. […] Two weeks after transfection, clones were isolated and expression was verified by fluorescence microscopy of HA-tagged receptors. […] Intracellular calcium levels were determined by measuring fluorescence emissions from Fura-2 AM (510 nm) after alternating excitation at 340 and 380 nm at 0.25 Hz for 5 min. Images were analyzed in the NIS-Elements AR software (Nikon), and the fluorescence ratio at 340nm/380nm was converted to Ca^2+ concentrations.

TRPV1, sequence (Q8NER1 whole entry): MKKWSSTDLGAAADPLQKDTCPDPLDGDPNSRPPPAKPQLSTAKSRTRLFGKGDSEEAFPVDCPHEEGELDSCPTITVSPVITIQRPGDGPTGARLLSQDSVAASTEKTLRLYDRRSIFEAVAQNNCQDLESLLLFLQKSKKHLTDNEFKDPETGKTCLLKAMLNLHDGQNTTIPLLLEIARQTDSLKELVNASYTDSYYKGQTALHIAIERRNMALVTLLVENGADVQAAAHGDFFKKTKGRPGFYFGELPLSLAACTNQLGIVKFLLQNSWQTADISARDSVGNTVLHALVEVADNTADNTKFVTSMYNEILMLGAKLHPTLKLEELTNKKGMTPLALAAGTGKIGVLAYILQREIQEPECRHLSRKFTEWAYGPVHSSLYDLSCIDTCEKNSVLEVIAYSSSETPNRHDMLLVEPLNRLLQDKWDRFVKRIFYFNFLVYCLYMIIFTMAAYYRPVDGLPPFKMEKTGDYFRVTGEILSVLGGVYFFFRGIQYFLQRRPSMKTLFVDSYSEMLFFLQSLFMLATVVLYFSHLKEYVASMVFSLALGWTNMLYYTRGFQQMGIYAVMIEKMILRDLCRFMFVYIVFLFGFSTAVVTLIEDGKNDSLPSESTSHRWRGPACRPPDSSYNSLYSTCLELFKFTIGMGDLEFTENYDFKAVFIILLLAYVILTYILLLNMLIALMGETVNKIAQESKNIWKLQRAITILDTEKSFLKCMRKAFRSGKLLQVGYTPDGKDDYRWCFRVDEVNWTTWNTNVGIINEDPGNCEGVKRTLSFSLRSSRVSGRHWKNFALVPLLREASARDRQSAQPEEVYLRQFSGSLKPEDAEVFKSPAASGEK

For `CCCCC/C=C\C/C=C\C/C=C\C/C=C\CCCC(=O)NCCO` [Anandamide], the “effect on intracellular calcium (Ca^2+)” value was “increases intracellular calcium (Ca^2+)”.
